Data taken from the supplement of paper PMC10307832.

Columns and labels:
Experiment in all cases: relative viability (nuclei count vs DMSO), 5 days (fraction); higher = more cells survive
Neratinib + Palbociclib = compound: CCOc1cc2ncc(C#N)c(Nc3ccc(OCc4ccccn4)c(Cl)c3)c2cc1NC(=O)/C=C/CN(C)C [Neratinib] + CC(=O)c1c(C)c2cnc(Nc3ccc(N4CCNCC4)cn3)nc2n(C2CCCC2)c1=O [Palbociclib] (partner 0.5 µM)
In short: (§1)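 The day after seeding in 1536-well plates, lung cancer cell lines were treated by pin tool with a single drug, or with a fixed anchor-drug dose together with five library-drug doses (not always all listed) in √10 steps. After 5 days, a combined fix-and-stain solution (final 0.05% Triton X-100, 1% formaldehyde, 1 ug/ml Hoechst) was added. Nuclei counted on 4× images gave relative viability as treated counts over vehicle counts, reported as the median of duplicate plates.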

Neratinib + Phenformin = compound: CCOc1cc2ncc(C#N)c(Nc3ccc(OCc4ccccn4)c(Cl)c3)c2cc1NC(=O)/C=C/CN(C)C [Neratinib] + N=C(N)NC(=N)NCCc1ccccc1 [Phenformin] (partner 250 µM)
In short: as §1

Neratinib + Pictilisib = compound: CCOc1cc2ncc(C#N)c(Nc3ccc(OCc4ccccn4)c(Cl)c3)c2cc1NC(=O)/C=C/CN(C)C [Neratinib] + CS(=O)(=O)N1CCN(Cc2cc3nc(-c4cccc5[nH]ncc45)nc(N4CCOCC4)c3s2)CC1 [Pictilisib] (partner 1 µM)
In short: as §1

Neratinib + Decitabine = compound: CCOc1cc2ncc(C#N)c(Nc3ccc(OCc4ccccn4)c(Cl)c3)c2cc1NC(=O)/C=C/CN(C)C [Neratinib] + Nc1ncn([C@H]2C[C@H](O)[C@@H](CO)O2)c(=O)n1 [Decitabine] (partner 2 µM)
In short: as §1

Row | Cell Line | relative viability (Neratinib + Palbociclib; first compound 0.01 µM) | relative viability (Neratinib + Palbociclib; first compound 0.03162 µM) | relative viability (Neratinib + Palbociclib; first compound 0.3162 µM) | relative viability (Neratinib + Palbociclib; first compound 1 µM) | relative viability (Neratinib + Phenformin; first compound 0.01 µM) | relative viability (Neratinib + Phenformin; first compound 0.03162 µM) | relative viability (Neratinib + Phenformin; first compound 0.1 µM) | relative viability (Neratinib + Phenformin; first compound 0.3162 µM) | relative viability (Neratinib + Phenformin; first compound 1 µM) | relative viability (Neratinib + Pictilisib; first compound 0.03162 µM) | relative viability (Neratinib + Pictilisib; first compound 0.1 µM) | relative viability (Neratinib + Pictilisib; first compound 0.3162 µM) | relative viability (Neratinib + Pictilisib; first compound 1 µM) | relative viability (Neratinib + Decitabine; first compound 0.01 µM) | relative viability (Neratinib + Decitabine; first compound 0.03162 µM) | relative viability (Neratinib + Decitabine; first compound 0.1 µM) | relative viability (Neratinib + Decitabine; first compound 0.3162 µM) | relative viability (Neratinib + Decitabine; first compound 1 µM) | relative viability (Neratinib + Palbociclib; first compound 0.1 µM) | relative viability (Neratinib + Pictilisib; first compound 0.01 µM)
1 | NCI-H2126 | 0.33 | 0.347 | 0.344 | 0.309 | 0.534 | 0.535 | 0.487 | 0.484 | 0.381 | 0.495 | 0.431 | 0.414 | 0.365 | 0.644 | 0.632 | 0.54 | 0.566 | 0.556 | – | –
2 | NCI-H23 | 0.48 | 0.579 | 0.563 | 0.318 | 0.959 | 0.905 | 0.827 | 0.731 | 0.597 | 0.428 | 0.437 | 0.483 | 0.372 | 0.325 | 0.298 | 0.289 | 0.404 | 0.264 | 0.482 | 0.553
3 | PC-3 [JPC-3] | 0.513 | 0.559 | 0.544 | 0.471 | 0.459 | 0.497 | 0.432 | 0.365 | 0.336 | 0.739 | 0.616 | 0.536 | 0.473 | 0.814 | 0.912 | 0.764 | 0.547 | 0.606 | 0.492 | 0.81
4 | NCI-H838 | 0.223 | 0.23 | 0.176 | 0.176 | 0.63 | 0.669 | 0.579 | 0.433 | 0.234 | 0.54 | 0.473 | 0.375 | 0.25 | 0.459 | 0.514 | 0.456 | 0.463 | 0.464 | 0.216 | 0.466
5 | NCI-H650 | 0.372 | 0.306 | 0.294 | 0.371 | 0.509 | 0.505 | 0.493 | 0.392 | 0.423 | 0.898 | 0.729 | – | 0.644 | 0.321 | 0.347 | 0.328 | 0.326 | 0.345 | 0.293 | 0.974
6 | EBC-1 | – | – | – | – | – | – | – | – | – | 0.408 | 0.378 | 0.319 | 0.274 | – | – | – | – | – | – | 0.398
7 | PC-14 | 0.625 | 0.672 | 0.0909 | 0.0675 | 0.602 | 0.764 | 0.655 | 0.267 | 0.186 | 0.805 | 0.66 | 0.121 | 0.101 | 0.217 | 0.285 | 0.241 | 0.194 | 0.108 | 0.474 | 0.927
8 | NCI-H1299 | – | – | – | – | – | – | – | – | – | 0.901 | 0.805 | 0.459 | 0.28 | – | – | – | – | – | – | 0.729
9 | LK-2 | 0.868 | 0.752 | 0.476 | 0.522 | 0.467 | 0.418 | 0.518 | 0.287 | 0.318 | 0.566 | 0.594 | 0.446 | 0.266 | 0.321 | 0.372 | 0.305 | 0.225 | 0.24 | – | 0.653
10 | NCI-H2009 | 0.176 | 0.266 | 0.243 | 0.208 | 0.482 | 0.509 | 0.484 | 0.389 | 0.303 | 0.892 | 0.727 | 0.638 | 0.432 | 0.358 | 0.396 | 0.342 | 0.447 | 0.387 | 0.21 | 0.862
11 | RERF-LC-KJ | 1.16 | 1.16 | 0.84 | 0.467 | 0.427 | 0.405 | 0.385 | 0.318 | 0.353 | 0.501 | 0.435 | 0.384 | 0.276 | 0.777 | 0.744 | 0.618 | 0.72 | 0.457 | 1.08 | 0.554
12 | NCI-H1437 | 0.322 | 0.329 | 0.268 | 0.341 | 0.351 | 0.284 | 0.281 | 0.243 | 0.29 | 0.553 | 0.356 | 0.325 | 0.343 | 0.539 | 0.521 | 0.582 | 0.58 | 0.661 | 0.293 | 0.474
13 | NCI-H2170 | 0.361 | 0.352 | 0.144 | 0.151 | 0.419 | 0.418 | 0.269 | 0.268 | 0.216 | 0.253 | 0.206 | 0.189 | 0.256 | 0.548 | 0.457 | 0.412 | 0.213 | 0.18 | 0.199 | 0.314
14 | SW 900 | – | 0.56 | 0.372 | 0.288 | 0.537 | 0.658 | – | 0.609 | 0.309 | – | – | – | – | 0.438 | 0.43 | 0.427 | 0.514 | 0.469 | 0.537 | –
15 | IA-LM | – | – | – | – | – | – | – | – | – | 0.318 | 0.193 | 0.197 | 0.126 | – | – | – | – | – | – | 0.33
16 | NCI-H2228 | 0.666 | 0.95 | 0.655 | 0.169 | 0.334 | 0.331 | 0.268 | 0.236 | 0.122 | 0.346 | 0.301 | 0.442 | 0.199 | – | – | – | – | – | 0.765 | 0.365
17 | NCI-H1563 | – | – | – | – | 0.727 | 0.643 | 0.568 | 0.628 | 0.409 | 0.636 | 0.664 | 0.617 | 0.602 | – | – | – | – | – | – | 0.608
18 | NCI-H2342 | 0.52 | 0.493 | – | 0.454 | 0.662 | 0.688 | 0.517 | 0.351 | 0.403 | – | – | – | – | – | 0.829 | 0.743 | 0.558 | 0.649 | 0.534 | –
19 | NCI-H522 | 1.22 | 0.759 | 0.733 | 0.538 | 0.747 | 0.619 | 0.663 | 0.548 | 0.604 | – | – | – | – | 0.719 | 0.671 | 0.711 | 0.557 | 0.573 | 0.719 | –
20 | NCI-H596 | – | – | – | – | 0.754 | 0.895 | 0.75 | 0.695 | 0.562 | 0.417 | 0.35 | 0.4 | 0.329 | 1.88 | 1.1 | 1 | 0.986 | 0.863 | – | 0.374
21 | CAL-12T | 0.41 | 0.478 | 0.118 | 0.184 | 0.55 | 0.572 | 0.488 | 0.254 | 0.179 | 0.548 | 0.362 | 0.396 | 0.218 | – | – | – | – | – | 0.179 | 0.491
